Test results published in patent publication US10259815B2, “Gabaergic ligands and their uses” (UWM Research Foundation, Inc., priority 2015, dated 2019).
Entries after “also recorded” stand apart in the source; their conditions may differ.

How the values were obtained:
[1] = Liver microsomal stability, human; assay type: in vitro ADME; details: for Human Liver microsome stability (reported in % remaining): 37° C., 4 μM compound, 30 minutes
Method: (§1) In vitro metabolism studies were done in mouse, rat, human, and dogs cells (TABLE 2).
(§2) In vitro liver microsomal studies were completed to measure the stability of the compounds against degradation in various species' liver microsomes.
(§3) Compound was incubated in hepatic microsomes over a 30-minute incubation period at 37° C. Incubations both with and without NADPH (2 mM) were performed in a 96-well plate format. The reaction was initiated with the addition of substrate and was terminated by protein precipitation. All incubations were performed using a final substrate concentration of 4 μM in 50 mM sodium phosphate buffer, pH 7.4. The final organic solvent content was 0.5% acetonitrile and 0.02% DMSO. The amount of enzyme present was fixed at 1.11 mg/mL protein irrespective of the species of microsomes used. Samples were analyzed by LC/MS-MS to determine the percent loss in the NAPDH incubations relative to the NADPH free incubations.

[2] = Liver microsomal stability, rat; assay type: in vitro ADME; details: for Rat Liver microsome stability (reported in % remaining): 37° C., 4 μM compound, 30 minutes
Method: as §1, §2, §3

Sprague Dawley male rats = assay: Mechanical hyperalgesia (von Frey) in CFA-induced inflammatory pain rat model; assay type: in vivo; details: for mechanical hyperalgesia in CFA-induced inflammatory pain: cumulative i.p. dosing, 3 days after CFA; for selectivity of antihyperalgesic effect in three-assay comparison: versus rate-suppressing and muscle-relaxant activity
Method: Raw data (paw withdrawal threshold, expressed in g of von Frey filament) was converted to a maximal possible effect value according the following equation: % MPE=[(test threshold(g)−control threshold(g)/(pre-CFA threshold−control threshold)]×100.
Complete Freund's adjuvant (CFA) contains Mycobacterium butyricum, inducing inflammation and an increase in paw thickness. 0.1 mL of CFA was injected in the right hind paw of Sprague Dawley male rats under isoflurane anaesthesia.
Mechanical hyperalgesia. Mechanical hyperalgesia was measured 3 days after CFA treatment. Rats (n=6) were placed in elevated boxes with a mesh floor. Von Frey filaments (expressed in g) were applied perpendicularly to the hindpaws, starting with the lowest filament (1.4 g) then increased until hindpaw withdrawal was observed. After each measurement, rats received the next dose of drug (every 20 min) until the maximum threshold (26 g) was observed. For the antagonist study, rats were pretreated with the benzodiazepine site antagonist flumazenil (10 min) and then received the next dose of drug (every 20 min) until the pre-CFA threshold was observed.
Drugs. The following drugs were used: HZ166, KRM-II-18B, and KRM-II-81, and were dissolved in a mixture containing 20% Dimethyl sulfoxide (DMSO), 10% Emulphor-620 (Rhodia Inc.), and 70% of 0.9% saline. Flumazenil (purchased from Cayman Chemical Company, MI) was dissolved in a mixture containing 10% ethanol, 40% propylene glycol, and 50% sterile water. Midazolam (Akorn, Inc.) was dissolved in 0.9% saline. Doses were expressed as the weight of the drug in milligrams per kilogram of body weight and drugs were administered intraperitoneally.

[3] = Pharmacokinetics and brain concentration after 10 mg/kg P.O. dose, rats; assay type: in vivo
Method: In a 10 mg/kg oral dose in rats, a concentration of 644 ng/g of KRM-II-81 was found unbound in the brain, indicating a great pharmacokinetic-profile.
Although these are different species, the numbers can still be compared.

Male Sprague-Dawley rats = assay: scMET-induced seizure protection, rats; assay type: in vivo; details: i.p. 30 minutes prior; pentylenetetrazole 35 mg/kg
Method: A 35 mg/kg subcutaneous dose of pentylenetetrazole was given and the percent outcome of seizure was recorded. Results were analyzed using ANOVA (Dunnett's test: *P<0.05).
Test subjects were given a test compound, followed by a 35 mg/kg dose of MET and observed for convulsions (FIG. 7).
Results were analyzed using ANOVA (Dunnett's test: *P<0.05).

Mice = assay: scMET test for anticonvulsant activity, mice; assay type: in vivo
Method: Mice were then dosed i.p. with 5, 10, 25, or 50 mg/kg of KRM-II-81.

SMILES: C#Cc1ccc2c(c1)C(c1ccccc1F)=NCc1c(-c3cnco3)ncn1-2 [KRM-II-18B, 5-(8-Ethynyl-6-(2-fluorophenyl)-4H-benzo[f]imidazo[1,5-a][1,4]diazepin-3-yl)oxazole]
- Human Liver microsome stability (reported in % remaining) [1]: 78 % remaining
- Rat Liver microsome stability (reported in % remaining) [2]: 68 % remaining
- mechanical hyperalgesia in CFA-induced inflammatory pain (Sprague Dawley male rats): much more active against hyperalgesia; also recorded: dose-dependently attenuated mechanical hyperalgesia
- selectivity of antihyperalgesic effect in three-assay comparison (Sprague Dawley male rats): selectively produce antihyperalgesic effect

SMILES: C#Cc1ccc2c(c1)C(c1ccccn1)=NCc1c(-c3cnco3)ncn1-2 [KRM-II-81, 5-(8-Ethynyl-6-(pyridin-2-yl)-4H-benzo[f]imidazo[1,5-a][1,4]diazepin-3-yl)oxazole]
- concentration in the blood relative to HZ-166 ([3]; Cmax, 10 mg/kg P.O., KRM-II-81 in rats vs HZ-166 in mice): ~500 times
- Tmax ([3]; rat, blood, po, 10 mg/kg P.O., rats): 1.3 h
- Cmax ([3]; rat, blood, po, 10 mg/kg P.O., rats, read-out: Cmax (highest concentration found in blood)): 1750 ng/mL
- concentration at 1 h ([3]; rat, brain (unbound), 10 mg/kg oral dose, one hour after dose, rats stated for KRM-II-81, read-out: brain unbound concentration ([brain]u)): 644 ng/g
- fraction unbound ([3]; rat, 10 mg/kg oral dose, brain, read-out: free fraction): 0.18
- Human Liver microsome stability (reported in % remaining) [1]: 91 % remaining
- Human % Metabolized ([1]; in vitro metabolism, human): 8.6%
- dose achieving significant protection against scMET seizures (Male Sprague-Dawley rats): 30 mg/kg
- Protected (animals protected/tested) (Mice; Dose 5 mg/kg i.p.): 0/8
- Protected (animals protected/tested) (Mice; Dose 10 mg/kg i.p.): 5/8
- Protected (animals protected/tested) (Mice; Dose 25 mg/kg i.p.): 7/8
- Protected (animals protected/tested) (Mice; Dose 50 mg/kg i.p.): 8/8
- ED50 (Mice; Mus musculus, ip, half hour time point, mice): 10.9 mg/kg
- Rat Liver microsome stability (reported in % remaining) [2]: 90 % remaining
- Rat % Metabolized ([2]; in vitro metabolism, rat): 9.6%
- mechanical hyperalgesia in CFA-induced inflammatory pain (Sprague Dawley male rats): much more active against hyperalgesia; also recorded: dose-dependently attenuated mechanical hyperalgesia
- selectivity of antihyperalgesic effect in three-assay comparison (Sprague Dawley male rats): selectively produce antihyperalgesic effect
